Measured values published in patent US20020032226A1, “Novel form of an oxazole compound” (priority 2000, published 2002).

How the values were obtained:
[1] = heat stability to withstand spray drying; format: physicochemical; conditions: temperature range of from about 40° C. to about 100° C.
COX-2 = molecular target: T1, COX-2 (Homo sapiens, UniProt P35354); experiment: in vitro activity of COX-2; format: biochemical
T1 sequence (P35354 18-604): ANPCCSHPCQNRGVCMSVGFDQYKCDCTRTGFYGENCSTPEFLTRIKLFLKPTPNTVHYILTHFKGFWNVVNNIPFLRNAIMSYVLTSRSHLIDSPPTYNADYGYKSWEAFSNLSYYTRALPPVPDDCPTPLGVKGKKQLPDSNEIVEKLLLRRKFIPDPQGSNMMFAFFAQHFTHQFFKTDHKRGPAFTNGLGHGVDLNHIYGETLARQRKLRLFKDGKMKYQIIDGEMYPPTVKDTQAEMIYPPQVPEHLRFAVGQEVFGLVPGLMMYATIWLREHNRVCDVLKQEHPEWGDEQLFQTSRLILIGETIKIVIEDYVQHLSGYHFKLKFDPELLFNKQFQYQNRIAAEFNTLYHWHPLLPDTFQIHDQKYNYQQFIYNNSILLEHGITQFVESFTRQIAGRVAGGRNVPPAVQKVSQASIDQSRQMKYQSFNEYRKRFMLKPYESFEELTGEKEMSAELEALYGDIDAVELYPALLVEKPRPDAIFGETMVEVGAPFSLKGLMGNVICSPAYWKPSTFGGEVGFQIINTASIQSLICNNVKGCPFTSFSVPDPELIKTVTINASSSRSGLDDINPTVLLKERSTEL

[2] = Comparative dissolution of crystalline Form B and amorphous compound; format: physicochemical; conditions: 150 mg in 900 mL, 37° C., paddle speed 100 rpm, particle size 212-425 μm, HPLC
Protocol: Dissolution rates for the crystalline compound having Form B and the amorphous compound were determined and compared in two media: water and simulated intestinal fluid (SIF) minus pancreatin.
Initial materials were sieved and material with a particle size between 212 and 425 μm was used for the study. A 150 mg sample was added to 900 mL of fluid in a dissolution bath. A temperature of 37° C. and a paddle speed of 100 rpm were used for the dissolution. Samples were pulled at specific time points (5, 15, 30 120, and 240 min) and filtered through a 0.2 μm nylon filter. Samples were analyzed by HPLC.

heat stability [1]	inhibits in vitro activity of COX-2 (COX-2)	Structure (SMILES)	dissolution rate in simulated intestinal fluid (SIF) minus pancreatin [2]	dissolution rate in water [2]
sufficient heat stability		Cc1nc(C2CCCCC2)c(-c2ccc(S(N)(=O)=O)c(F)c2)o1 [5-(4-aminosulfonyl-3-fluorophenyl)-4-cyclohexyl-2-methyloxazole]		
	nanomolar range	Cc1nc(C2CCCCC2)c(-c2ccc(S(N)(=O)=O)c(F)c2)o1 [amorphous compound, 5-(4-aminosulfonyl-3-fluorophenyl)-4-cyclohexyl-2-methyloxazole]	dissolved more rapidly	dissolved more rapidly
		Cc1nc(C2CCCCC2)c(-c2ccc(S(N)(=O)=O)c(F)c2)o1 [crystalline compound having Form B, 5-(4-aminosulfonyl-3-fluorophenyl)-4-cyclohexyl-2-methyloxazole]	significantly slower dissolution rate than the amorphous form	significantly slower dissolution rate than the amorphous form
